Measurements published in US8937064B2, “Pyrazolo[1,5-a]pyrimidines useful as JAK2 inhibitors” (Vertex Pharmaceuticals Incorporated, priority 2007, dated 2015).

Tests used:
JAK-2 enzyme = JAK-2 enzyme (Homo sapiens, UniProt O60674); test: JAK2 Inhibition Assay
JAK3 = molecular target: T1, JAK3 (Homo sapiens, UniProt P52333); test: JAK3 Inhibition Assay; assay type: biochemical; settings: 1 nM JAK3, 1 μM poly(Glu)4Tyr, 5 μM ATP, 25° C., 33P incorporation
T1 sequence (P52333 1-1124): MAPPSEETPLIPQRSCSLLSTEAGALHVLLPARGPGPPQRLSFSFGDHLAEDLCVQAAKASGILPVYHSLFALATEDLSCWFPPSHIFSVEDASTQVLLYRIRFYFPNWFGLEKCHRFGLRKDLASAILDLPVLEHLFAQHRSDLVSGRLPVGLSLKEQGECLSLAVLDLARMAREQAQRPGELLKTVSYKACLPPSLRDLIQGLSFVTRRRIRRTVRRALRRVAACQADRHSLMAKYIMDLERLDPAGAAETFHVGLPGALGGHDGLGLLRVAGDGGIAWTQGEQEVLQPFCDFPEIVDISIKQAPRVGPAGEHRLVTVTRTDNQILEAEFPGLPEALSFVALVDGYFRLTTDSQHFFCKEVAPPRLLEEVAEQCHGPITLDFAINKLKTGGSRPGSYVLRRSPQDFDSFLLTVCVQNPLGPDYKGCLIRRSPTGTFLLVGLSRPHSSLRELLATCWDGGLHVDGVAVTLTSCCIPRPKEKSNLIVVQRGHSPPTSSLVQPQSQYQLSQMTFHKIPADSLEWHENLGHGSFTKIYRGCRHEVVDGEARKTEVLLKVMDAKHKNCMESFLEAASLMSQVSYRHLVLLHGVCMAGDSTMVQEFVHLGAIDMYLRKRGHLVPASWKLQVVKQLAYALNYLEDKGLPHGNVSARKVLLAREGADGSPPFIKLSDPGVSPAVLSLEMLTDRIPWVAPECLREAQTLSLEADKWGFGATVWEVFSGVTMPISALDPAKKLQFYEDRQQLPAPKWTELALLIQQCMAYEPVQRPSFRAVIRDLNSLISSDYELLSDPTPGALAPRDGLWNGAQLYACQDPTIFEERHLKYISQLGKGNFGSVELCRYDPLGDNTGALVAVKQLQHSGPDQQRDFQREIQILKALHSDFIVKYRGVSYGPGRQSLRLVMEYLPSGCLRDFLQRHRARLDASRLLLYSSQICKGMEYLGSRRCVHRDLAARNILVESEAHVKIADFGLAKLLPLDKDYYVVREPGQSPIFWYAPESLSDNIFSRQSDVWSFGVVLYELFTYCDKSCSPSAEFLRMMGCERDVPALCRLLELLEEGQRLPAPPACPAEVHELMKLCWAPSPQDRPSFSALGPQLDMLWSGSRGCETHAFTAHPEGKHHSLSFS

Chain of JAK-2 enzyme (O60674 whole entry): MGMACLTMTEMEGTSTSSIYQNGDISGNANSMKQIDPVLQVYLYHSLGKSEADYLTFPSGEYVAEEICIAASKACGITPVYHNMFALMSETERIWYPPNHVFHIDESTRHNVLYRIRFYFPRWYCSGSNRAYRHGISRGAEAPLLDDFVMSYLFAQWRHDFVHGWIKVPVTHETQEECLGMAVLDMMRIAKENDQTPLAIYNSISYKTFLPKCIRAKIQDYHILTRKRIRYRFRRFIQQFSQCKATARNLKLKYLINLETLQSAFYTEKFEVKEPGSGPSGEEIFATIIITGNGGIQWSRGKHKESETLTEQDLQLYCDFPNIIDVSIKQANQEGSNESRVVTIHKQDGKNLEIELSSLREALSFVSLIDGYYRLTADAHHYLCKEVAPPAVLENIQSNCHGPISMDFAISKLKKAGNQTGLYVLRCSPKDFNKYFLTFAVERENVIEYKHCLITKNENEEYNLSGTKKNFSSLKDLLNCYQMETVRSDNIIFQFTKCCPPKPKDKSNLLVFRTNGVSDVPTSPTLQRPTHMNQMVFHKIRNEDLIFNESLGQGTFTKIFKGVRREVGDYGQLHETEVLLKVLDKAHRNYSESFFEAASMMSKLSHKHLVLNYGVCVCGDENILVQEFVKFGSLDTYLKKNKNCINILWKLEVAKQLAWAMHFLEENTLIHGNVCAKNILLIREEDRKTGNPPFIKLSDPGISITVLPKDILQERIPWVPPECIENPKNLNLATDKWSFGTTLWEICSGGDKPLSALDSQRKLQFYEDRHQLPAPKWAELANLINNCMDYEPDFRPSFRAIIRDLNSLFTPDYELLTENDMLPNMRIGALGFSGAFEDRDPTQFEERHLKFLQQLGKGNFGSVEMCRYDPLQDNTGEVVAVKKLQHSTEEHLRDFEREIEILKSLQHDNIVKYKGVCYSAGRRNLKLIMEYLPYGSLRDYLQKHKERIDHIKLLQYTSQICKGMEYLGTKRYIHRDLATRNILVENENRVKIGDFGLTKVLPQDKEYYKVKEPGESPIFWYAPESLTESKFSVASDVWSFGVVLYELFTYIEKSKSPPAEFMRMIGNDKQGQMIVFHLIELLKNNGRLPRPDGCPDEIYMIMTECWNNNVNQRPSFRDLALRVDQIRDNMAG

| Ki (JAK-2 enzyme) | Ki (JAK3) | Compound |
| --- | --- | --- |
| 10 to 100 nM | 100 to 500 nM | C[C@H](Nc1cc(-c2cnn3cccnc23)nc(OC2CCNC2)n1)c1ccc(F)cc1F (stereo partly drawn) [Compound 218] |
| 10 to 100 nM | 100 to 500 nM | C[C@H](Nc1cc(-c2c(N)nn3cccnc23)nc(OCCOC(C)(C)C)n1)c1ccc(F)cc1 [Compound 160] |
| < 10 nM | 100 to 500 nM | C=C(C)COc1nc(N[C@@H](C)c2ccc(F)cc2)cc(-c2c(N)nn3cccnc23)n1 [Compound 175] |
| 10 to 100 nM | 10 to 100 nM | Nc1nn2cccnc2c1-c1cc(NCc2ccco2)ncn1 [Compound 24] |
| < 10 nM | 10 to 100 nM | Nc1nn2cccnc2c1-c1cc(N2CCCC2c2ccccc2)ncn1 (stereo not drawn) [Compound 57] |
| < 10 nM | 10 to 100 nM | C=CCOCCOc1nc(N[C@@H](C)c2ccc(F)cc2F)cc(-c2cnn3cccnc23)n1 [Compound 221] |
| < 10 nM | 10 to 100 nM | C=CCCOc1nc(N[C@@H](C)c2ccc(F)cc2)cc(-c2c(N)nn3cccnc23)n1 [Compound 170] |
| 10 to 100 nM | 100 to 500 nM | C=COCCCCOc1nc(N[C@@H](C)c2ccc(F)cc2)cc(-c2c(N)nn3cccnc23)n1 [Compound 174] |
| 10 to 100 nM | 100 to 500 nM | C[C@@H](c1ccccc1)N(C)c1cc(-c2c(N)nn3cccnc23)ncn1 [Compound 19] |
| < 10 nM | 100 to 500 nM | C[C@H](Nc1cc(-c2cnn3cccnc23)nc(OC2CCN(C)CC2)n1)c1ccc(F)cc1F [Compound 200] |
| < 10 nM | 100 to 500 nM | C[C@H](Nc1cc(-c2cnn3cccnc23)nc(OCC2CC2)n1)c1ccc(F)cc1F [Compound 205] |
| < 10 nM | 10 to 100 nM | COCCOc1nc(N[C@@H](C)c2ccc(F)cc2F)cc(-c2cnn3cccnc23)n1 [Compound 196] |
| < 10 nM | 100 to 500 nM | C[C@H](Nc1cc(-c2cnn3cccnc23)nc(NC(=O)CCN2CCCC2=O)n1)c1ccc(F)cc1F [Compound 185] |
| 10 to 100 nM | 100 to 500 nM | C[C@H](Nc1cc(-c2cnn3cccnc23)nc(OCC2CCCC2)n1)c1ccc(F)cc1F [Compound 223] |
| 100 to 500 nM | 500 to 5000 nM | O=C(Nc1ccnc(-c2cnn3cccnc23)c1)c1ccc(F)cc1F [Compound 229] |
| < 10 nM | 10 to 100 nM | C[C@H](Nc1cc(-c2cnn3cccnc23)nc(OCCN2CCCCC2)n1)c1ccc(F)cc1F [Compound 195] |
| < 10 nM | 100 to 500 nM | C[C@H](Nc1cc(-c2cnn3cccnc23)nc(OCC(C)(C)N(C)C)n1)c1ccc(F)cc1F [Compound 193] |
| 100 to 500 nM | 500 to 5000 nM | CC(C)[C@@H](Nc1cc(-c2c(N)nn3cccnc23)nc(N2CCOCC2)n1)c1ccc(F)cc1F [Compound 104] |
| < 10 nM | 10 to 100 nM | C[C@H](Nc1cc(-c2cnn3cccnc23)ncn1)c1ccc(F)c(F)c1 [Compound 118] |
| 100 to 500 nM | 100 to 500 nM | CCC[C@H](Nc1cc(-c2c(N)nn3ccc(C(F)(F)F)nc23)ncn1)c1ccc(F)cc1F [Compound 137] |
| < 10 nM | 10 to 100 nM | C[C@H](Nc1cc(-c2cnn3cccnc23)nc(OCC2CCOC2)n1)c1ccc(F)cc1F (stereo partly drawn) [Compound 222] |
| < 10 nM | 10 to 100 nM | C[C@H](Oc1cc(-c2c(N)nn3cccnc23)ncn1)c1ccccc1 [Compound 68] |
| < 10 nM | 10 to 100 nM | C=CCOc1nc(N[C@@H](C)c2ccc(F)cc2)cc(-c2c(N)nn3cccnc23)n1 [Compound 169] |
| < 10 nM | 10 to 100 nM | C[C@H](Nc1cc(-c2c(N)nn3cccnc23)nc(C2CC2)n1)c1ccc(F)cc1 [Compound 91] |
| 10 to 100 nM | 10 to 100 nM | OCC[C@H](Nc1cc(-c2cnn3cccnc23)ncn1)c1ccccc1 [Compound 115] |
| 100 to 500 nM | > 5000 nM | Nc1nn2cccnc2c1-c1cc(OCc2ccc(C(F)(F)F)cc2)ncn1 [Compound 72] |
| 10 to 100 nM | 100 to 500 nM | C[C@H](Nc1cc(-c2c(N)nn3cccnc23)nc(OCC2(C)CC2)n1)c1ccc(F)cc1 [Compound 143] |

| Ki (JAK-2 enzyme) | Ki (JAK3) | Compound |
| --- | --- | --- |
| < 10 nM | < 10 nM | COCCOc1nc(N[C@@H](C)c2ccc(F)cc2F)cc(-c2c(N)nn3cccnc23)n1 [Compound 126] |
| < 10 nM | 10 to 100 nM | CCC(C#N)Oc1nc(N[C@@H](C)c2ccc(F)cc2F)cc(-c2cnn3cccnc23)n1 (stereo partly drawn) [Compound 192] |
| < 10 nM | 100 to 500 nM | COCCC(=O)Nc1nc(N[C@@H](C)c2ccc(F)cc2F)cc(-c2cnn3cccnc23)n1 [Compound 184] |
| < 10 nM | 10 to 100 nM | CC(C)NCCOc1nc(N[C@@H](C)c2ccc(F)cc2F)cc(-c2cnn3cccnc23)n1 [Compound 207] |
| < 10 nM | 10 to 100 nM | C[C@H](Nc1cc(-c2c(N)nn3cccnc23)ncn1)c1ccc(F)cc1Cl [Compound 80] |
| < 10 nM | 10 to 100 nM | C[C@H](Nc1cc(-c2c(N)nn3cccnc23)nc(OCC2COC(C)(C)O2)n1)c1ccc(F)cc1 (stereo partly drawn) [Compound 168] |
| 100 to 500 nM | 500 to 5000 nM | O=C(Nc1ccnc(-c2cnn3cccnc23)c1)c1ccccc1F [Compound 228] |
| < 10 nM | 10 to 100 nM | C[C@H](Nc1cc(-c2c(N)nn3cccnc23)nc(OCCN2CCCC2=O)n1)c1ccc(F)cc1F [Compound 128] |
| < 10 nM | 10 to 100 nM | Nc1nn2cccnc2c1-c1cc(NCc2ccc(C(F)(F)F)cc2F)ncn1 [Compound 46] |
| < 10 nM | 100 to 500 nM | C#CC(CC)Oc1nc(N[C@@H](C)c2ccc(F)cc2)cc(-c2c(N)nn3cccnc23)n1 (stereo partly drawn) [Compound 180] |
| < 10 nM | 10 to 100 nM | Nc1nn2cccnc2c1-c1cc(NC2(c3ccc(F)cc3)CC2)ncn1 [Compound 90] |
| 10 to 100 nM | 100 to 500 nM | Nc1nn2cccnc2c1-c1cc(NCc2csc3ccccc23)ncn1 [Compound 31] |
| < 10 nM | 10 to 100 nM | C[C@H](Nc1cc(-c2cnn3cccnc23)nc(OCCN(C)C)n1)c1ccc(F)cc1F [Compound 197] |
| 10 to 100 nM | 100 to 500 nM | CC#CCOc1nc(N[C@@H](C)c2ccc(F)cc2)cc(-c2c(N)nn3cccnc23)n1 [Compound 151] |
| < 10 nM | 10 to 100 nM | CNC(=O)CC(Nc1cc(-c2cnn3cccnc23)ncn1)c1ccc(F)cc1 (stereo not drawn) [Compound 141] |
| < 10 nM | 100 to 500 nM | C[C@H](Nc1cc(-c2cnn3cccnc23)nc(NC(=O)CN2CCOCC2)n1)c1ccc(F)cc1F [Compound 186] |
| < 10 nM | 10 to 100 nM | CC[C@H](Nc1cc(-c2c(N)nn3cccnc23)ncn1)c1ccc(F)cc1Cl [Compound 82] |
| 10 to 100 nM | 100 to 500 nM | CCC#CCOc1nc(N[C@@H](C)c2ccc(F)cc2)cc(-c2c(N)nn3cccnc23)n1 [Compound 162] |
| 10 to 100 nM | 100 to 500 nM | COCCN(C)c1nc(N[C@@H](C)c2ccc(F)cc2F)cc(-c2c(N)nn3cccnc23)n1 [Compound 133] |
| < 10 nM | < 10 nM | C[C@H](Nc1cc(-c2c(N)nn3cccnc23)nc(S(C)(=O)=O)n1)c1ccc(F)cc1 [Compound 100] |
| < 10 nM | 10 to 100 nM | COCCOc1nc(N[C@@H](C)c2ccc(F)cc2)cc(-c2c(N)nn3cccnc23)n1 [Compound 108] |
| < 10 nM | 10 to 100 nM | COC(C)(C)CCOc1nc(N[C@@H](C)c2ccc(F)cc2F)cc(-c2c(N)nn3cccnc23)n1 [Compound 138] |
| < 10 nM | 10 to 100 nM | C[C@H](Nc1cc(-c2c(N)nn3cccnc23)nc(OCC2CC2)n1)c1ccc(F)cc1 [Compound 166] |
| 10 to 100 nM | 100 to 500 nM | C[C@H](Nc1cc(-c2c(N)nn3cccnc23)nc(OCCC2CC2)n1)c1ccc(F)cc1 [Compound 157] |
| < 10 nM | 100 to 500 nM | CCC1c2ccccc2CCN1c1cc(-c2c(N)nn3cccnc23)ncn1 (stereo not drawn) [Compound 64] |
| < 10 nM | 10 to 100 nM | CCC[C@H](Nc1cc(-c2c(N)nn3cccnc23)nc(S(C)(=O)=O)n1)c1ccc(F)cc1F [Compound 112] |
| < 10 nM | 10 to 100 nM | COc1ccccc1CNc1cc(-c2c(N)nn3cccnc23)ncn1 [Compound 5] |
